Laboratory results reported in ChEMBL document CHEMBL1159333, “Halogenated metabolites from the new Okinawan red alga Laurencia yonaguniensis” (J Nat Prod, 2002).
Calls of active or inactive are those of the source. The rule behind the calls is not given here.

Key:
Halomonas aquamarina = assay: Antibacterial activity against Alcaligenes aquamarinus at 100 ug/disk after 24 hrs by paper disk diffusion assay; assay type: functional, organism-based; settings: Vreelandella aquamarina
Escherichia coli = assay: Antibacterial activity against Escherichia coli at 100 ug/disk after 24 hrs by paper disk diffusion assay; assay type: functional, organism-based
[1] = Toxicity against Artemia salina nauplii after 24 hrs; assay type: organism-based; settings: in vivo

SMILES	Activity (Halomonas aquamarina)	Activity (Escherichia coli)	LC50 at 24 h [1]
CC1(C)[C@H](Br)C[C@H](O)[C@]1(C)[C@@]1(O)CC[C@]2(C)[C@@H](Br)CC[C@@](C)(O)[C@@]2(O)C1 [NEOIRIETETRAOL]	Active	Active	40.1 µM
C#C/C=C\C[C@@H]1O[C@H](/C=C/C)C/C=C\C[C@@H]1Cl	inactive	inactive	467 µM
